EP4595972A1, “PEPTIDE FOR TREATING OR PREVENTING 4R TAUOPATHY” (GemVax & KAEL Co., Ltd., priority 2022, dated 2024)

How the values were obtained:
[1] = tested on: TauP301L-BiFC mice; assay: Rota-rod test (motor ability) in 4R TauP301L-BiFC mouse model; assay type: in vivo
Description: • (1) After carrying out adaptation training for 3 days, a behavior experiment was performed on day 4. • (2) 1 hour before the experiment, a time for adaptation of experimental mice in a space where the behavior experiment is conducted, should be ensured. • (3) During the period for adaptation training, each mouse is forced to walk on a treadmill for 360 seconds at a speed of 5 rpm, 15 rpm, 20/25 rpm. Here, an experimental mouse losing a balance and fallen to the floor was forced to walk again. • (4) After the adaptation training, the behavior experiment was conducted by gradually increasing the speed from 5 rpm to 35 rpm for 480 seconds. When the treadmill worked, a time (seconds) taken until the experimental mouse lost the balance and fallen to the floor was measured.
Results of evaluating motor ability improvement efficacy through a Rota-rod test in a 4R TauP301L-BiFC mouse model were shown in Table 4 below and FIG. 2. Using a TauP301L-BiFC mouse model including 7- to 12-month-old mice administered with the drug for 5 months, the experiment was conducted. The results were analyzed through bidirectional ANOVA using Tukey's multiple-comparisons (*p<0.05; **p<0.01; n.s.: Insignificant for vehicle).

[2] = tested on: human Tau-BiFC (hTau-VN173, hTau-VC155); assay: Tau immunoblot of brain lysate, soluble fraction, hTau; assay type: in vivo, mouse; conditions: LMTM 15 mg/kg oral vs. vehicle; decrease (in parentheses)
Description: • (1) After completing administration, the mice of TauP301L-BiFC mouse model were anesthetized, followed by preparing heart laparotomy. • (2) Saline was introduced to the heart of each mouse in the TauP301L-BiFC mouse model, followed by removing vivo blood using a perfusion pump machine. • (3) After removing the blood, the brain was extracted and weighed. • (4) 1 mL RIPA buffer (w/protease/phosphatase inhibitor cocktail) was added to the extracted brain, followed by homogenization. • (5) After moving the homogenized brain lysate to an ep-tube, it was subjected to incubation in 4°C orbital shaker for 2 hours. • (6) After centrifugation at 4°C with a speed of 13,000 rpm for 20 minutes, the supernatant (soluble fraction) was collected in a new ep-tube and stored at -80°C • (7) In order to prepare an immunoblot sample, the concentration of a soluble fraction sample was quantified by Bradford protein quantification method. • (8) To each sample, RIPA buffer and 4X SDS Laemmli sample buffer (w/ 2.5% β-mercaptoethanol for reducing condition) were added to reach a final concentration of 2 mg/mL. • (9) The sample was boiled at 97°C for 5 minutes. […]

CN(C)c1ccc2c(c1)Sc1cc(N(C)C)ccc1N2.CS(=O)(=O)O.CS(=O)(=O)O [LMTM]
Duration (Rota-rod test on 11.9 months) ([1]; LMTM 15 mg/kg oral vs. vehicle, improvement): 57%
exercise performance (Rota-rod treadmill), in words ([1]; LMTM 15 mg/kg vs. vehicle, mice administered 59 times): exercise performance tended to improve, however, did not show a significant difference
Soluble fraction, Phosphorylated tau, hTau (pS199) [2]: (20%)
Soluble fraction, Phosphorylated tau, hTau (pS396) [2]: (23%)
Soluble fraction, Total tau, hTau [2]: (20%)
